Experimental findings from patent US20070111968A1, “1-Aza-dibenzo[e,h]azulenes for the treatment of central nervous system diseases and disorders” (GLAXOSMITHKLINE ISTRAZIVACKI CENTAR ZAGREB D.O.O., priority 2003, published 2007) are described below.

The target in one test is T1, 5-HT2A receptor (Homo sapiens, UniProt P28223).
T1 construct: expressed in transfected cells; host or cells: CHO-K1 (or COS-7); alternatively human cortex tissue
Briefly: radioligand binding assay for 5-HT2A receptor ([3H]-ketanserin). The conditions noted are these: competitive binding. How it is done:
(§1) The effect of the compounds of the present invention on the neurochemical steady state was determined by in vitro investigations such as a radionuclide-marked radioligand binding assay for 5-HT2A (Bonhaus D. W. Br. J. Pharmacol. 1995, 115:622; Saucier C. J. Neurochem. 1997, 68:1998) and 5-HT2C receptors (Wolf W. A. J. Neurochem. 1997, 69:1449), in vitro binding assay for σ1 receptor (Thomson W. and Donn R. Arthritis Res. 2002, 4: 302-306) and by in vivo investigations in a tail suspension test (Vogel H. G. and Vogel W. H. Drug Discovery and Evaluation Pharmacological Assays, Springer 1997, 304), in amphethamine-induced hyperlocomotion in mice (Millan M. J. et al, 1998 J. Pharmacol. Exp. Ther. 287: 167-186), in a forced swim test in mice (Porsolt R. D. et al. Arch. Int. Pharmacodyn. 1977, 229:327-336), in meta-chlorophenyl piperazine (m-CPP) test on rats (Drug Dev. Res. 1989, 18:119-144), and in apomorphine, tryptamine, norepinephrine (ATN) test in rats (Arch. Int. […]
(§2) A small concentration of a radioligand having a great affinity for binding to a receptor was incubated with a tissue sample enriched with a certain receptor (1-5 mg of tissue) in a buffered medium (0.2-5 mL). […] When a binding balance was achieved, the receptors to which the radioligand was bound were separated from those to which said ligand was not bound, and the radioactivity of the receptor/radioligand complex was measured. […]

The target in a further test is T2, 5-HT2C receptor (Homo sapiens, UniProt P28335).
T2 construct: expressed in transfected cells; host or cells: CHO-K1 (or COS-7); alternatively choroid plexus tissue
T2 sequence (P28335 33-458): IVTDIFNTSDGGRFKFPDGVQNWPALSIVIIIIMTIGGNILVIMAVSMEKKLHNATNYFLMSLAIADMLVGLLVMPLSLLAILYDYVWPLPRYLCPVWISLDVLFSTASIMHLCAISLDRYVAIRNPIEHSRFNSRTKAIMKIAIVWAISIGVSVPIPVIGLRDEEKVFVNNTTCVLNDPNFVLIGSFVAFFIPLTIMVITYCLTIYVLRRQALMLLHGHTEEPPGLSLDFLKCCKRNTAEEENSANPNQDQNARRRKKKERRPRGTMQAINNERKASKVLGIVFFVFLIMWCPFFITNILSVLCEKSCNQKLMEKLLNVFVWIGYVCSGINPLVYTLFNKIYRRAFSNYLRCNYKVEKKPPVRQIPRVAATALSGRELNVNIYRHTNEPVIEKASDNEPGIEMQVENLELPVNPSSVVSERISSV
Nature of the test: radioligand binding assay for 5-HT2C receptor ([3H]mesulergine). The conditions noted are these: competitive binding. How it is done: as §1, §2

As usually defined, the IC50 is the concentration at which inhibition is half-maximal. One may read the Ki as a measure of affinity in units of concentration, obtained from inhibition or displacement.

T1 sequence (P28223 whole entry): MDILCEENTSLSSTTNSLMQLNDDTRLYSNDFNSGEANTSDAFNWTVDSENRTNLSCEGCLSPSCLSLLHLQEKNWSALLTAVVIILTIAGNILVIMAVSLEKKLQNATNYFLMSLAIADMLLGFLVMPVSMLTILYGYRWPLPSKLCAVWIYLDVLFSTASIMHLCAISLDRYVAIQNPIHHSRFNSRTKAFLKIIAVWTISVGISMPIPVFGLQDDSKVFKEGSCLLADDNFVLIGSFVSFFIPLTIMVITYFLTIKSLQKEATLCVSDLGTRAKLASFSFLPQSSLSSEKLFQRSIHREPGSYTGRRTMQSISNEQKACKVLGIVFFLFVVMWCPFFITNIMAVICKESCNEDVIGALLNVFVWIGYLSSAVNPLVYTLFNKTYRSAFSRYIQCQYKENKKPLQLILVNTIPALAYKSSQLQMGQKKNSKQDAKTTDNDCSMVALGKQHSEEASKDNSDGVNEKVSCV

Take `CN(C)CCOCc1cc2c([nH]1)-c1ccccc1Sc1ccccc1-2` [dimethyl-[2-(1H-8-thia-1-aza-dibenzo[e,h]azulen-2-ylmethoxy)-ethyl]-amine]: the IC50 is < 200 nM on 5-HT2A receptor (human cortex or recombinant 5-HT2A in CHO-K1, read-out: binding affinity to 5-HT2A serotonin receptor expressed as IC50 value) and < 200 nM at 5-HT2C receptor (choroid plexus or recombinant 5-HT2C in CHO-K1, read-out: binding affinity to 5-HT2C serotonin receptor expressed as IC50 value). The Ki was < 100 nM on 5-HT2A receptor (human cortex or recombinant 5-HT2A in CHO-K1, read-out: binding affinity to 5-HT2A serotonin receptor, Ki value) and < 100 nM at 5-HT2C receptor (choroid plexus or recombinant 5-HT2C in CHO-K1, read-out: binding affinity to 5-HT2C serotonin receptor, Ki value).
